Results reported in patent publication US11752132B2, “Materials and methods for improving gastrointestinal function” (University of Florida Research Foundation, Incorporated, priority 2010, dated 2023).
Several values for one entry are separate records, joined by “and”; a condition that tells them apart may be missing. Equal values may be shown once. Entries after “also recorded” stand apart in the source; their conditions may differ. Read-outs that look alike come from different tables or passages of the source.

Legend:
lysine-transporter = assay: Lysine-stimulated Isc / lysine transport kinetics; assay type: cell-based, mice
[1] = test system: mice with injury to small intestine mucosa; assay: Oral administration of candidate nutrients in radiation, chemotherapy and Crohn's disease models
Procedure: In a Crohn's disease model, mice are injected with anti-CD3 mAb (acute inflammatory model to mimic conditions of Crohn's disease).
The alterations of absorptive capacity of nutrients are determined using disease models with injury to small intestine mucosa, i.e., the radiation model, chemotherapy model, and the Crohn's disease model. Specifically, a candidate nutrient is orally administered to control mice and mice that received irradiation, chemotherapy, and anti-CD3 mAb, respectively. In addition, compositions containing various combinations of the candidate nutrients are orally administered.
To determine the absorptive capacity of each nutrient, bioelectric measurements are performed using an Ussing chamber. The measurements include: a) the sodium coupled-amino acid current (ISC) and changes in conductance, b) changes in saturation kinetics of each nutrient and changes in the ISC following the administration of each nutrient; and c) the electrolyte absorption studies using isotope flux studies in the presence and absence of the specific candidate nutrient.

IR mice = conditions: lysine 20 mg/mice/day orally for 5 days, thereafter every other day
Text: Gavage was used during the experiment, and treatments were given on the first 5 days after irradiation and every other day until 10 days after irradiation.

glutamine transporter = assay: Glutamine-stimulated Isc / saturation kinetics of glutamine transporter; assay type: cell-based, mice; conditions: increasing IR dose
GI tract mucosa = conditions: animal studies; cited from earlier work
[2] = test system: patients who have received pelvic radiation therapy; conditions: oral glutamine feeding; patients after pelvic radiation therapy; cited from earlier work
[3] = test system: jejunal mucosa (net anion secretion); assay: Ussing chamber transepithelial short circuit current (Isc) with transport blockers/forskolin; assay type: cell-based, mice; conditions: for basal Isc after bumetanide: 100 μM bumetanide in bath solution
Text: To study active HCO3^− secretion, 8-week-old, non-irradiated and irradiated, male BALB/c mice were obtained from the National Cancer Institute. Mice were randomly divided into groups, and abdomens were irradiated according to the gastrointestinal acute radiation syndrome (GI ARS) model with a Shepherd Mark-I, using a ^137Cs source delivering γ-irradiation at 1.84 Gy/min. Radiation was given as a single fraction. The GI ARS model will achieve maximum radiation damage to intestinal tissues, and mimics intestinal injury during radiation therapy of pelvic or abdominal tumors.
Changes in short circuit current (Isc), both as a function of time following radiation and with increasing doses of radiation, were examined to determine the earliest time and the minimum radiation dose required to produce significant changes in Isc. These studies were approved by the University of Rochester Animal Care and Use Committee.
Following exsanguinations, jejunal segment was obtained by excluding the distal 12 cm of small intestine adjacent to the caecum. This segment was washed and flushed in ice-cold Ringer's solution before the mucosa was stripped from the underlying muscular layers (Zhang, Ameen et al. 2007). The mucosa was mounted between the 2 halves of an Ussing-type Lucite chamber with an area of 0.30 cm^2 (P2304, Physiologic instruments, San Diego, Calif. 92128 USA), and electrical parameters were recorded using a voltage/current clamp device (VCC MC-8, Physiologic instruments, San Diego, Calif. 92128 USA) (Vidyasagar et al. 2005; Vidyasagar et al. 2004; Zhang et al. 2007; Vidyasagar and Ramakrishna 2002).
To determine the contribution of NKCC1 to basal Isc, 100 μM bumetanide (Sigma-Aldrich Co., USA) was added to the bath solution.
To determine whether the bumetanide-insensitive portion of Isc occurs via an apical membrane anion channel, a non-specific anion channel blocker, 5-nitro-2-(3-phenylpropylamino)-benzoic acid (Sigma-Aldrich Co., USA) (10 μM NPPB), and a specific cystic fibrosis transmembrane conductance regulator (CFTR) blocker (100 μM glibenclamide, Sigma-Aldrich Co., USA) were applied.

[4] = test system: jejunum (HCO3^− secretion); assay: pH stat measurement of HCO3^− secretion in stripped jejunal sheets; assay type: cell-based, mice; conditions: for forskolin-stimulated HCO3^− secretion after blocker: 0 Gy + forskolin, blocker on luminal side (100 μM glibenclamide; NPPB)
Procedure: A Bi-burette TIM 856 (Radiometer Analytical SAS, Villeurbanne, France) was used to measure HCO3^− secretion in stripped jejunal sheets (Vidyasagar et al. 2005; Vidyasagar et al. 2004; Zhang et al. 2007). Automated pumps maintained a constant pH for luminal solution through the addition of 0.01 μl of 0.025 M sulfuric acid (H2SO4). Standard-to-stat pH calibration was established by adding a known quantity of H2SO4 to a weak buffering solution, which contains an increasing concentration of HCO3^− to produce a linear titration curve.
Jejunal tissues were exposed to a buffered solution on the bath side (serosal side), while the luminal side was exposed to an HCO3^− free, low-buffered solution (0.1-mM HEPES (4-(2-hydroxyethyl)-1-piperazineethanesulfonic acid) buffer, pH 7.4). The HCO3^− secretion was equivalent to the amount of acid added to the luminal solution to maintain the pH at 7.4 (or the stat pH). All experiments were performed under voltage-clamp conditions. HCO3^−-free solution was gassed with 100% O2 and HCO3^−-containing solution was gassed with 95% O2 and 5% CO2. The HCO3^− secretion was expressed as μeq h^−1·cm^−2 (Vidyasagar et al. 2005; Vidyasagar et al. 2004; Zhang et al. 2007).
After the tissue was mounted, HCO3^− secretions were initially present in the absence of bath HCO3^−, but rapidly fell towards 0 within 20-30 minutes. If bath HCO3^− was not present during the titration, the HCO3^− secretion remained close to 0. […] When inhibitors were added to the mucosal solution, the pH was adjusted and allowed to equilibrate for 30 minutes, until a steady rate of HCO3^− secretion was observed. When the inhibitor was added to the bath side, the tissue was also equilibrated for 30 minutes to achieve a steady rate of HCO3^− secretion (see Table 3).
All experiments were performed during the initial 1-hour steady-state period. 1 tissue from each animal was used for each experiment; only 1 experimental condition was studied with each tissue sample. All experiments were repeated for at least 4 times.

small intestine mucosa = conditions: mouse, in vivo
Procedure: Following each injection, transepithelial ISC, an indicator of net anion secretion, is measured using an Ussing chamber, at time points as indicated in FIG. 20. For each measurement, a minimum of 32 tissues is examined.

[5] = test system: jejunal mucosa (net anion secretion); assay: Ussing chamber transepithelial short circuit current (Isc) with transport blockers/forskolin; assay type: cell-based, mice; conditions: 10 μM bumetanide
[6] = clinical trials; cited from earlier work
[7] = oral feeding of an irradiated subject
[8] = oral administration, radiation, chemotherapy and Crohn's disease models

Compound: NCCCC[C@H](N)C(=O)O [lysine]
- Isc on addition of lysine to small intestine lumen side (lysine-transporter): causes an increase in Isc
- Km (lysine-transporter; 3 Gy IR tissues): 270 ± 10 µM
- lysine-stimulated Isc (lysine-transporter; increasing IR dose, FIG. 16 legend): dose-dependent decrease in lysine-stimulated Isc
- Km (lysine-transporter; tissues from non-IR mice): 1160 ± 40 µM
- survival [1, 7]: prolongs survival
- effect of oral administration on small intestine healing, paracellular conductance, electrolyte absorption, survival ([1]; radiation, chemotherapy and Crohn's disease models, each amino acid): improve small intestine healing, reduces paracellular conductance (thereby improving small intestine mucosal barrier mechanism), increases absorption of electrolytes, and/or improves survival in animals
- survival of IR mice with oral lysine (IR mice): increased survival; also recorded: can increase survival in mice
- survival of IR mice with oral lysine (IR mice; listed as Lysine): increased survival

Compound: NC(=O)CC[C@H](N)C(=O)O [glutamine]
- Km of glutamine transporter (saturation kinetics) (glutamine transporter; FIG. 15): IR dose-dependent increase in Km
- glutamine-stimulated Isc (glutamine transporter; FIG. 15 legend): dose-dependent increase in glutamine-stimulated Isc
- small intestine mucosa barrier [1, 8]: impairs small intestine mucosa barrier
- survival of mice [1, 8]: has adverse effects on survival of mice
- osmotic diarrhea [1, 7]: cause osmotic diarrhea
- survival [1, 7]: reduced survival
- protection of GI tract mucosa from injury caused by chemotherapy or radiation therapy (GI tract mucosa): protects both upper and lower GI tract mucosa from injury
- prevention or alleviation of acute diarrhea [2]: fail to show that oral glutamine feeding can prevent or alleviate acute diarrhea

Compound: COc1ccc(Cl)cc1C(=O)NCCc1ccc(S(=O)(=O)NC(=O)NC2CCCCC2)cc1 [glibenclamide]
- bumetanide-insensitive Isc after mucosal addition of blocker ([3]; 0-Gy mice, 10 μM NPPB, 100 μM glibenclamide): 0.1±0.01 μeq·h^−1·cm^−2
- HCO3^− secretion ([4]; 0 Gy + bumetanide, tissues treated with forskolin, 100 μM blocker in lumen solution): 0.5 ± 0.1^ μeq·h^−1·cm^−2
- forskolin-stimulated HCO3^− secretion after blocker [4]: 0.1 ± 0.1^ μeq·h^−1·cm^−2
- forskolin-stimulated HCO3^− secretion after blocker ([4]; listed as Glibenclamide): 0.1±0.1 μeq·h^−1·cm^−2
- HCO3^− secretion ([4]; 0 Gy, blocker in lumen solution (100 μM DIDS or glibenclamide)): 0.5 ± 0.1^ μeq·h^−1·cm^−2
- HCO3^− secretion ([4]; 3 Gy + bumetanide, 100 μM blocker in lumen solution): 0.2 ± 0.1^ns μeq·h^−1·cm^−2
- HCO3^− secretion ([4]; 3 Gy, blocker in lumen solution / mucosal addition (100 μM DIDS or glibenclamide; NPPB)): 0.11±0.1 μeq·h^−1·cm^−2 and 0.1 ± 0.1^ns μeq·h^−1·cm^−2

Compound: O=c1[nH]cc(F)c(=O)[nH]1 [5-FU, 5-fluorouracil]
- net anion secretion (transepithelial ISC) (small intestine mucosa): significant increase in net anion secretion
- toxicity to small intestine (small intestine mucosa): maximum toxicity to small intestine

Compound: CCCCNc1cc(C(=O)O)cc(S(N)(=O)=O)c1Oc1ccccc1 [bumetanide]
- basal Isc after bumetanide ([3]; 0-Gy mice, 1.6±0.2 without): 0.9±0.1 μeq·h^−1·cm^−2
- forskolin-stimulated Isc after bumetanide ([3]; 0 Gy): 1.3±0.2 μeq·h^−1·cm^−2
- forskolin-stimulated Isc after bumetanide ([3]; 3 Gy): 0.4±0.1 μeq·h^−1·cm^−2
- basal and forskolin-stimulated increase in Isc ([3]; bumetanide on bath side, Cl^−-free solution on both sides): did not inhibit basal and forskolin-stimulated increase in Isc
- basal Isc after bumetanide ([3]; irradiated (3 Gy) tissues, 5.5±0.5 without): 0.6±0.1 μeq·h^−1·cm^−2
- HCO3^− secretion ([4]; 0 Gy + bumetanide, tissues treated with forskolin, Cl^−-free lumen solution): 8.4 ± 0.4^ μeq·h^−1·cm^−2
- HCO3^− secretion ([4]; 3 Gy + bumetanide, Cl^−-free lumen solution): 0.8 ± 0.1^ns μeq·h^−1·cm^−2
- Isc associated with IR [5]: abolished almost all of the Isc associated with IR

Compound: sucralfate
- reduction of acute GI symptoms (diarrhea prophylaxis) [6]: only a moderate reduction of acute GI symptoms was achieved
